Results published in the NIST ThermoML archive (doi:10.1016/j.jct.2009.04.009).

Conditions: Liquid

CC(C)CO [2-methyl-1-propanol]
Recirculating still
Conditions	vapor or sublimation pressure [kPa]
336.9 K	15
351.2 K	30
357.7 K	40
362.9 K	50
367.4 K	60
371.3 K	70
374.7 K	80
377.8 K	90
380.7 K	100
383.3 K	110
385.8 K	120
388 K	130
390.2 K	140
392.2 K	150

CC(C)CCO [3-methylbutan-1-ol]
Recirculating Still
Conditions	vapor or sublimation pressure [kPa]
357.5 K	15
367.2 K	23.5
374.4 K	32
380.1 K	40.5
384.8 K	49
389.1 K	57.5
392.8 K	66
402 K	91.5
407 K	108.5
409.3 K	117
411.4 K	125.5
413.5 K	134
415.4 K	142.5
417.3 K	151
419.2 K	159.5
420.9 K	168
422.4 K	176.5
